Measurements from patent US4143041A, “4'-Deoxyvincristine and related compounds” (Eli Lilly and Company, priority 1977, dated 1979).
Structures can show the parent of a compound that is named as a salt.

How the values were obtained:
[1] = test system: GLS (Gardner lymphosarcoma); test: transplanted Gardner lymphosarcoma (GLS) in mice; format: in vivo
Method: (§1) The compounds of this invention, as represented by Formula II above, particularly those in which R^1 is acetoxy, are powerful anti-tumor agents.
(§2) The following table -- Table 1 -- gives the results of several experiments in which transplanted tumors in mice were treated successfully with a compound of this invention.
(§3) In the table, column 1 gives the name of the compound; column 2, the transplanted tumor; column 3, the dose level or dose level range and the number of days the dosage was administered; column 4, the route of administration, and column 5, the percent inhibition of tumor growth or percent prolongation of survival time, e.g., B16. (ROS is an abbreviation of Ridgeway osteogenic sarcoma; GLS for Gardner lymphosarcoma; P1534(J) and L1210 are leukemias; CA755 is an adenocarcinoma; and B16 is a melanoma.).

L1210 leukemia = test: transplanted L1210 leukemia in mice; format: in vivo; conditions: IP
Method: as §1, §2, §3

[2] = test system: ROS (Ridgeway osteogenic sarcoma); test: transplanted Ridgeway osteogenic sarcoma (ROS) in mice; format: in vivo; conditions: IP
Method: as §1, §2, §3

B16 melanoma = test: transplanted B16 melanoma in mice (survival); format: in vivo; conditions: IP
Method: as §1, §2, §3
**Delayed treatment-dosed 5th, 9th and 13th days

[3] = test system: 755 (CA755 adenocarcinoma); test: transplanted CA755 adenocarcinoma in mice; format: in vivo; conditions: IP
Method: as §1, §2, §3

P1534(J) leukemia = test: transplanted P1534(J) leukemia in mice; format: in vivo; conditions: IP
Method: as §1, §2, §3

pKa' in 66% DMF = format: physicochemical
transplanted tumors = test: anti-tumor / oncolytic activity against transplanted tumors in mice; format: in vivo
Source text: as §1

[4] = test system: experimental malignancies; conditions: cited from earlier work
experimental tumors = conditions: cited from earlier work
[5] = cited from earlier work

## CC[C@H]1C[C@@H]2CN(CCc3c([nH]c4ccccc34)[C@@](C(=O)OC)(c3cc4c(cc3OC)N(C=O)[C@H]3[C@@](O)(C(=O)OC)[C@H](OC(C)=O)[C@]5(CC)C=CCN6CC[C@]43[C@@H]65)C2)C1 [4'-Deoxy-1-formylleurosidine sulfate]
[1]; 0.18 mg./kg. × 3 days, IP
  Percent Inhibition or Prolongation of Survival Time: 100%
[1]; 0.25 mg./kg. × 3 days, IP
  Percent Inhibition or Prolongation of Survival Time (Toxic): Toxic
[1]; 0.4 mg./kg. × 3 days, IP
  Percent Inhibition or Prolongation of Survival Time: 100%
[1]; 0.6 mg./kg. × 3 days, IP
  Percent Inhibition or Prolongation of Survival Time (Toxic): Toxic
L1210 leukemia; 0.25 mg./kg. × 3 days, *1 or more indefinite survivors
  Percent Inhibition or Prolongation of Survival Time: 65%
L1210 leukemia; 0.4-0.6 mg./kg. × 3 days
  Percent Inhibition or Prolongation of Survival Time (Toxic): Toxic
[2]; 0.18 mg./kg. × 3 days
  Percent Inhibition or Prolongation of Survival Time: 93%
[2]; 0.25 mg./kg. × 3 days
  Percent Inhibition or Prolongation of Survival Time (Toxic): Toxic
[2]; 0.4 mg./kg. × 3 days
  Percent Inhibition or Prolongation of Survival Time: 100%

## CC[C@H]1C[C@@H]2CN(CCc3c([nH]c4ccccc34)[C@@](C(=O)OC)(c3cc4c(cc3OC)N(C=O)[C@H]3[C@@](O)(C(=O)OC)[C@H](O)[C@]5(CC)C=CCN6CC[C@]43[C@@H]65)C2)C1 [4'-Deoxy-4-desacetyl 1-desmethyl-1-formyl-leurosidine sulfate]
[1]; 0.18 mg./kg. × 3 days, route not given
  Percent Inhibition or Prolongation of Survival Time: 95%
[1]; 0.6 mg./kg. × 3 days, route not given
  Percent Inhibition or Prolongation of Survival Time (Toxic): Toxic
[1]; 0.25-0.40 mg./kg. × 3 days, route not given
  Percent Inhibition or Prolongation of Survival Time: 94-100%
B16 melanoma; 0.15-0.6 mg./kg. × 3 days, **delayed treatment, dosed 5th, 9th and 13th days
  Percent Inhibition or Prolongation of Survival Time: 31 -62%

## CC[C@@H]1C[C@@H]2CN(CCc3c([nH]c4ccccc34)[C@@](C(=O)OC)(c3cc4c(cc3OC)N(C=O)[C@H]3[C@@](O)(C(=O)OC)[C@H](OC(C)=O)[C@]5(CC)C=CCN6CC[C@]43[C@@H]65)C2)C1 [4'-Deoxyvincristine sulfate, 4'-deoxyvincristine sulfate]
[1]; 0.18-0.25 mg./kg. × 3 days, IP
  Percent Inhibition or Prolongation of Survival Time: 62-94%
[1]; 0.4-0.6 mg./kg. × 3 days, IP
  Percent Inhibition or Prolongation of Survival Time (Toxic): Toxic
[3]; 0.9 mg./kg. × 3 days
  Percent Inhibition or Prolongation of Survival Time (Toxic): Toxic
[3]; 0.06-0.13 mg./kg. × 9-10 days
  Percent Inhibition or Prolongation of Survival Time: 15-100%
[3]; 0.1-0.3 mg./kg. × 3 days
  Percent Inhibition or Prolongation of Survival Time: 36-100%
[3]; 0.25-1.8 mg./kg. × 9-10 days
  Percent Inhibition or Prolongation of Survival Time (Toxic): Toxic
B16 melanoma; 0.30-0.9 mg./kg. × 3 days, *1 or more indefinite survivors
  Percent Inhibition or Prolongation of Survival Time: 36-143%

## CC[C@H]1C[C@@H]2CN(CCc3c([nH]c4ccccc34)[C@@](C(=O)OC)(c3cc4c(cc3OC)N(C=O)[C@H]3[C@@](O)(C(=O)OC)[C@H](OC(C)=O)[C@]5(CC)C=CCN6CC[C@]43[C@@H]65)C2)C1 [4'-deoxy-1-formylleurosidine]
[1]; 0.25-0.6 mg./kg. × 3 days, IP
  Percent Inhibition or Prolongation of Survival Time: 73-100%
[3]; 0.25 mg./kg. × 3 days
  Percent Inhibition or Prolongation of Survival Time: 47%
[3]; 0.4 mg./kg. × 3 days
  Percent Inhibition or Prolongation of Survival Time: 73%
[3]; 0.6 mg./kg. × 3 days
  Percent Inhibition or Prolongation of Survival Time: 54%
[3]; 0.03-0.09 mg./kg. × 9 days
  Percent Inhibition or Prolongation of Survival Time: 8-72%
[3]; 0.06-0.135 mg./kg. × 10 days
  Percent Inhibition or Prolongation of Survival Time: 33-93%
[3]; 0.2-0.3 mg./kg. × 10 days
  Percent Inhibition or Prolongation of Survival Time (Toxic): Toxic
B16 melanoma; 0.9 mg./kg. × 3 days
  Percent Inhibition or Prolongation of Survival Time (Toxic): Toxic
B16 melanoma; 0.25-0.6 mg./kg. × 3 days
  Percent Inhibition or Prolongation of Survival Time: 98-146%
P1534(J) leukemia; 0.18 mg./kg. × 10 days
  Percent Inhibition or Prolongation of Survival Time (Toxic): Toxic
P1534(J) leukemia; 0.08-0.18 mg./kg. × 10 days
  Percent Inhibition or Prolongation of Survival Time: 9-46%
pKa' in 66% DMF
  pKa: 9

## CC[C@H]1C[C@@H]2CN(CCc3c([nH]c4ccccc34)[C@@](C(=O)OC)(c3cc4c(cc3OC)N(C)[C@H]3[C@@](O)(C(=O)OC)[C@H](O)[C@]5(CC)C=CCN6CC[C@]43[C@@H]65)C2)C1 [4'-deoxy-4-desacetyl-leurosidine sulfate, 4'-deoxy-4-desacetylleurosidine sulfate]
[1]; 0.4 mg./kg. × 3 days, IP
  Percent Inhibition or Prolongation of Survival Time (Toxic): Toxic
[1]; 0.6 mg./kg. × 3 days, IP
  Percent Inhibition or Prolongation of Survival Time: 63%
[1]; 0.9 mg./kg. × 3 days, IP
  Percent Inhibition or Prolongation of Survival Time (Toxic): Toxic
[3]; 0.25 mg./kg. × 3 days
  Percent Inhibition or Prolongation of Survival Time: 32%
[3]; 0.4 mg./kg. × 3 days
  Percent Inhibition or Prolongation of Survival Time: 37%
[3]; 0.6 mg./kg. × 3 days
  Percent Inhibition or Prolongation of Survival Time (Toxic): Toxic
B16 melanoma; 0.15 mg./kg. × 3 days, **delayed treatment, dosed 5th, 9th and 13th days
  Percent Inhibition or Prolongation of Survival Time: 77%
B16 melanoma; 0.3 mg./kg. × 3 days, **delayed treatment, dosed 5th, 9th and 13th days
  Percent Inhibition or Prolongation of Survival Time: 103%
B16 melanoma; 0.6 mg./kg. × 3 days, **delayed treatment, dosed 5th, 9th and 13th days
  Percent Inhibition or Prolongation of Survival Time (Toxic): Toxic

## CC[C@H]1C[C@@H]2CN(CCc3c([nH]c4ccccc34)[C@@](C(=O)OC)(c3cc4c(cc3OC)N(C)[C@H]3[C@@](O)(C(=O)OC)[C@H](O)[C@]5(CC)C=CCN6CC[C@]43[C@@H]65)C2)C1 [4'-deoxy-4-desacetylleurosidine]
Transplanted tumors
  anti-tumor / oncolytic activity: oncolytic agent

## CC[C@]1(O)C[C@@H]2CN(CCc3c([nH]c4ccccc34)[C@@](C(=O)OC)(c3cc4c(cc3OC)N(C)[C@@H]3[C@]45CCN4CC=C[C@@](CC)(C[C@]3(O)C(=O)OC)[C@H]45)C2)C1 [4-desacetoxy vinblastine]
[4]
  activity in the treatment of experimental malignancies in animals: active

## CCC1(O)CN2CCc3c([nH]c4ccccc34)C(C(=O)OC)(c3cc4c(cc3OC)N(C)C3C(O)(C(=O)OC)CC5(CC)C=CCN6CCC43C65)CC(C2)C1O (stereo not drawn) [4-desacetoxy-3'-hydroxyvinblastine]
[4]
  activity in the treatment of experimental malignancies in animals: active

## CC[C@@H]1C[C@@H]2CN(CCc3c([nH]c4ccccc34)[C@@](C(=O)OC)(c3cc4c(cc3OC)N(C)[C@H]3[C@@](O)(C(=O)OC)[C@H](OC(C)=O)[C@]5(CC)C=CCN6CC[C@]43[C@@H]65)C2)C1 [deoxy VLB "A"]
[4]
  activity in the treatment of experimental malignancies in animals: active
Experimental tumors
  oncolytic activity in experimental tumors in mice: lack reproducible activity

## CC[C@H]1C[C@@H]2CN(CCc3c([nH]c4ccccc34)[C@@](C(=O)OC)(c3cc4c(cc3OC)N(C)[C@H]3[C@@](O)(C(=O)OC)[C@H](OC(C)=O)[C@]5(CC)C=CCN6CC[C@]43[C@@H]65)C2)C1 [deoxy VLB "B"]
[4]
  activity in the treatment of experimental malignancies in animals: active
Experimental tumors
  oncolytic activity in experimental tumors in mice: lack reproducible activity

## CCC1(O)CN2CCc3c([nH]c4ccccc34)C(C(=O)OC)(c3cc4c(cc3OC)N(C)C3C(O)(C(=O)OC)C(OC(C)=O)C5(CC)C=CCN6CCC43C65)CC(O)(C2)C1 (stereo not drawn) [leurocolombine]
[4]
  activity in the treatment of experimental malignancies in animals: active

## CC[C@]1(O)C[C@@H]2CN(CCc3c([nH]c4ccccc34)[C@@](C(=O)OC)(c3cc4c(cc3OC)N(C=O)[C@H]3[C@@](O)(C(=O)OC)[C@H](OC(C)=O)[C@]5(CC)C=CCN6CC[C@]43[C@@H]65)C2)C1 [leurocristine]
[4]
  activity in the treatment of experimental malignancies in animals: active

## CCC12CN3CCc4c([nH]c5ccccc45)[C@@](C(=O)OC)(c4cc5c(cc4OC)N(C=O)[C@H]4[C@@](O)(C(=O)OC)[C@H](OC(C)=O)[C@]6(CC)C=CCN7CC[C@]54[C@@H]76)C[C@@H](C3)C1O2 (stereo partly drawn) [leuroformine, N-formylleurosine]
[4]
  activity in the treatment of experimental malignancies in animals: active

## CC[C@@]1(O)C[C@@H]2CN(CCc3c([nH]c4ccccc34)[C@@](C(=O)OC)(c3cc4c(cc3OC)N(C)[C@H]3[C@@](O)(C(=O)OC)[C@H](OC(C)=O)[C@]5(CC)C=CCN6CC[C@]43[C@@H]65)C2)C1 [leurosidine]
[4]
  activity in the treatment of experimental malignancies in animals: active

## CCC12CN3CCc4c([nH]c5ccccc45)[C@@](C(=O)OC)(c4cc5c(cc4OC)N(C)[C@H]4[C@@](O)(C(=O)OC)[C@H](OC(C)=O)[C@]6(CC)C=CCN7CC[C@]54[C@@H]76)C[C@@H](C3)C1O2 (stereo partly drawn) [leurosine]
[4]
  activity in the treatment of experimental malignancies in animals: active
Experimental tumors
  oncolytic activity in experimental tumors in mice: demonstrated oncolytic activity
[5]
  clinical response: limited

## CCC1(O)CN2CCc3c([nH]c4ccccc34)C(C(=O)OC)(c3cc4c(cc3OC)N(C)C3C(O)(C(=O)OC)C(OC(C)=O)C5(CC)C=CCN6CCC43C65)CC(C2)C1O (stereo not drawn) [vincadioline]
[4]
  activity in the treatment of experimental malignancies in animals: active

## CC[C@]1(O)C[C@@H]2CN(CCc3c([nH]c4ccccc34)[C@@](C(=O)OC)(c3cc4c(cc3OC)N(C)[C@H]3[C@@](O)(C(=O)OC)[C@H](OC(C)=O)[C@]5(CC)C=CCN6CC[C@]43[C@@H]65)C2)C1 [vincaleukoblastine]
[4]
  activity in the treatment of experimental malignancies in animals: active
